In EP0920441B1, “7ALPHA-(EPSILON-AMINOALKYL)-ESTRATRIENES, PROCESS FOR PREPARING THE SAME, PHARMACEUTICAL PREPARATIONS CONTAINING SAID 7ALPHA-(EPSILON-AMINOALKYL)-ESTRATRIENES AND THEIR USE FOR PREPARING MEDICAMENT” (SCHERING AKTIENGESELLSCHAFT, priority 1996, dated 1998):

Key:
humanem Estrogenrezeptor = molecular target: T1, humanem Estrogenrezeptor (Homo sapiens, UniProt P03372); test: Transactivation assay for antiestrogenic activity in HeLa cells (HEGO + Vit-TK-CAT reporter); type: cell-based; settings: Hela cells transiently transfected with HEGO and Vit-TK-CAT; in presence of 0,1 nM Estradiol; read-out: IC50 [nM] Hela-Zellen
T1 construct: expressed in transfected cells; host or cells: HeLa cells, transiently transfected with HEGO
T1 sequence (P03372 1-595): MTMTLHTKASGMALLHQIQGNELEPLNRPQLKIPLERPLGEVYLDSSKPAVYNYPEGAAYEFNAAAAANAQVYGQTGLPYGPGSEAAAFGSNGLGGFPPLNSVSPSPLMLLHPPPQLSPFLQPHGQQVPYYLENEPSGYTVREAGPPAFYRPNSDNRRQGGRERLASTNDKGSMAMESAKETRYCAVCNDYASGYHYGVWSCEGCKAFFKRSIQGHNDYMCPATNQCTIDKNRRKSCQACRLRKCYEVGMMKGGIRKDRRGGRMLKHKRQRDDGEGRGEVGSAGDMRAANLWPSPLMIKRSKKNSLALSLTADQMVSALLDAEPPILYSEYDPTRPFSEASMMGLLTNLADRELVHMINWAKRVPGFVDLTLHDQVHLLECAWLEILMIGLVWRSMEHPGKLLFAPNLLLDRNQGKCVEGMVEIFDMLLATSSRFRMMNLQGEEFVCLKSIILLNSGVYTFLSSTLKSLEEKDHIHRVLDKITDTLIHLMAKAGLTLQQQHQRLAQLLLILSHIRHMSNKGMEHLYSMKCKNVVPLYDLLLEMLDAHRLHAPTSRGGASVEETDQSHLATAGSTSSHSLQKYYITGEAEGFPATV
Text: Die antiestrogene Wirkung der erfindungsgemäßen Verbindungen wurde in Transaktivierungsassays bestimmt [Demirpence E., Duchesne M.-J., Badia E., Gagne D. und Pons M.: MVLN Cells: A Bioluminescent MCF-7-Derived Cell Line to study the Modulation of Estrogenic Activity; J. Steroid. Molec.
Die Hela-Zellen sind transient mit humanem Estrogenrezeptor-Expressionsvektor (HEGO) und Vit-TK-CAT Reportergen und die MVLN-Zellen stabil mit dem Reportergen Vit-TK-LUC transfiziert. Es wurde die […] Wirkstärke in Gegenwart von 0,1 nM Estradiol bestimmt.

Uterus = Uterus growth test in the infantile rat, p.o. (antiestrogenic / antiuterotrophic activity); type: in vivo, Ratte; settings: 0,1 mg/kg p.o. once daily for 3 days with 0,5 µg Estradiolbenzoat s.c., inhibition of uterus weight versus EB control
Text: 1. Uteruswachstumstest bei der infantilen Ratte (antiestrogene Wirkung)
Bei Nagern reagiert der Uterus auf die Applikation von estrogenen mit einer Gewichtszunahme (sowohl Proliferation als auch Wassereinlagerung). Dieses Wachstum ist durch gleichzeitige Gäbe antiestrogen-wirkender Verbindungen dosisabhängig zu hemmen. * = Dimethylbenzanthrazen
Infantile weibliche Ratten im Gewicht von 35-45 g bei Versuchsbeginn, pro Dosis 5-6 Tiere.
Für die p.o. Applikation werden die Substanzen in 1 Teil Ethanol (E) gelöst und mit 9 Teilen Erdnußöl (EÖ) aufgefüllt.
Die gerade von den Müttern abgesetzten jungen Ratten werden zur Eingewöhnung einen Tag vor Behandlungsbeginn geliefert und sofort mit Futter - auch in dem Tierkäfig - versorgt. Die Behandlung erfolgt dann täglich einmal über 3 Tage in Kombination mit 0,5 µg Estradiolbenzoat (EB). EB wird immer subcutan (s.c.) appliziert, während die Testsubstanz p.o. (peroral) verabreicht wird. 24 Stunden nach der letzten Applikation werden die Tiere gewogen, getötet und die Uteri entnommen. Von den präparierten Uteri werden die Feuchtgewichte (ohne Inhalt) ermittelt.
• negative Kontrolle: Vehikel (E/EÖ), 0,2 ml/Tier/Tag • positive Kontrolle: 0,5 µg EB/0,1 ml/Tier/Tag
Von den relativen Organgewichten (mg/100 g Körpergewicht) werden für jede Gruppe die Mittelwerte mit Standardabweichung (X+SD), sowie die Signifikanz der Unterschiede zur Kontrollgruppe (EB) im Dunnett-Test (p<0.05) ermittelt. Die Berechnung der Hemmung (in %) gegenüber der EB-Kontrolle erfolgt mit einem Programm. Die relativen Wirksamkeiten der Prüfsubstanzen werden durch eine Kovarianz- und Regressionsanalyse ermittelt.

[1] = system: DMBA-induzierten Mammatumors; test: DMBA tumour model in the rat (influence on tumour growth); type: in vivo, Ratte
Text: Beeinflussung des Tumorwachstums im DMBA*-Modell bei der Ratte (DMBA-Tumormodell)
Das Wachstum des DMBA-induzierten Mammatumors der Ratte ist weitgehend von Estrogenen und Prolaktin abhängig. Wirksame Antiestrogene, Antigestagene und Aromatasehemmer führen zur Hemmung des Tumorwachsturns. Substanzen, die antigonadotrope und androgene Eigenschaften besitzen, entfalten ebenfalls tumorhemmende Wirkung.
45 - 47 Tage alte weibliche Ratten (Sprague-Dawley, Züchter ZIH oder Möllegard), pro Gruppe 8 - 10 Tiere. *9,10-Dimethyl-1,2-benzanthracen
Die Tiere erhalten einmalig 10 mg DMBA oral. Anschließend werden die Tiere einmal wöchentlich palpatorisch auf Tumorentwicklung untersucht. 6 bis 10 Wochen nach der DMBA-Behandlung entwickeln sich etwa 1 bis 10 Tumoren pro Tier. Die Tumorgröße wird einmal wöchentlich mit Hilfe einer Schiebelehre bestimmt. Hat mindestens ein Tumor eine definierte Größe (150 mm^2 Tumorfläche) erreicht, erfolgt die Ovariektomie der Tiere bzw. beginnt die Behandlung der Tiere mit der Testsubstanz. Die Behandlung erfolgt zumeist täglich über ca. 28 Tage (Details Abwicklung siehe Versuchsplan). Die Tumorgröße wird weiterhin 1 x /Woche ermittelt.
Die Gesamttumorgröße pro Tier wird vor Beginn der Behandlung ermittelt (Vorwerte). Für jede Gruppe wird dann der Mittelwert der prozentualen Veränderungen der Tumorgröße, bezogen auf die initialen Werte, errechnet. […]

[2] = Antiestrogenic activity (test not specified)

| SMILES | IC50 (humanem Estrogenrezeptor) [nM] | 0,1 mg/kg p.o. % Hemmung (Uterus) [%] | Hemmung des Tumorwachstums ([1]; oral dose 3 mg/kg/Tag (Figur 1)) | antiestrogene Wirksamkeit [2] | Hemmung des Tumorwachstums ([1]; oral dose 10 mg/kg/Tag (Figur 1)) |
| --- | --- | --- | --- | --- | --- |
| CN(CCCCC[C@@H]1Cc2cc(O)ccc2[C@@H]2[C@@H]1[C@@H]1CC[C@H](O)[C@@]1(C)C[C@@H]2F)CCCSCCCC(F)(F)C(F)(F)F [Beispiel 12, 11β-Fluor-7α-{5-(N-methyl-N-3-(4,4,5,5,5-pentafluorpentylthio)-propytamino]-pentyl}-estra-1,3,5(10)-trien-3,17β-diol] | 0.06 | 91 |  |  |  |
| CN(CCCCC[C@@H]1Cc2cc(O)ccc2[C@H]2CC[C@@]3(C)[C@@H](C[C@@H](F)[C@]3(C)O)[C@H]12)CCCSCCCC(F)(F)C(F)(F)F [Beispiel 15, 16α-Fluor-17α-methyl-7α-{5-[N-methyl-N-3-(4,4,5,5,5-pentafluorpentylthio)-propylamino]-pentyl}-estra-1,3,5(10)-trien-3,17β-diol] | 0.06 | 33 |  |  |  |
| CN(CCCCC[C@@H]1Cc2cc(O)ccc2[C@H]2CC[C@@]3(C)[C@@H](C[C@@H](F)[C@]3(C)O)[C@H]12)CCCS(=O)(=O)CCCC(F)(F)C(F)(F)F [Beispiel 18, 16α-Fluor-17α-methyl-7α-{5-[N-methyl-N-3-(4,4,5,5,5-pentafluorpentansulfonyl)-propylamino]-pentyl}-estra-1,3,5(10)-trien-3,17β-diol] | 0.05 | 16 |  |  |  |
| CN(CCCCC[C@@H]1Cc2cc(O)ccc2[C@H]2CC[C@@]3(C)C(=CC[C@@H]3O)[C@H]12)CCCS(=O)(=O)CCCC(F)(F)C(F)(F)F [Beispiel 25, 7α-{5-[N-Methyl-N-3-(4,4,5,5,5-pentafluorpentansulfonyl)-propylamino]-pentyl}-estra-1,3,5(10),14-tetraen-3,17β-diol] | 0.06 |  |  |  |  |
| C[C@]12C[C@H](F)[C@@H]3c4ccc(O)cc4C[C@@H](CCCCCN4CCC[C@H]4CSCCCC(F)(F)C(F)(F)F)[C@H]3[C@@H]1CC[C@@H]2O [Beispiel 29, 11β-Fluor-7α-{5-[2-(4,4,5,5,5-pentafluorpentylthiomethyl)-pyrrolidin-1-yl]-pentyl}-estra-1,3,5(10)-trien-3,17β-diol] | 0.13 | 80 | stärker als eine orale Dosis von 10 mg/kg/Tag 7α-[9-(4,4,5,5,5-Pentafluorpentansulfinyl)-nonyl]-estra-1,3,5(10)-trien-3,17β-diol |  |  |
| C[C@]1(O)CC[C@H]2[C@@H]3[C@H](CCCCCN4CCC[C@H]4CSCCCC(F)(F)C(F)(F)F)Cc4cc(O)ccc4[C@H]3[C@@H](F)C[C@@]21C [Beispiel 31, 11β-Fluor-17α-methyl-7α-{5-[(2S)-2-(4,4,5,5,5-pentafluorpentylthiomethyl)-pyrrolidin-1-yl]-pentyl}-estra-1,3,5(10)-trien-3,17β-diol] | 0.1 | 71 |  |  |  |
| CN(CCCCC[C@@H]1Cc2cc(O)ccc2[C@@H]2[C@@H]1[C@@H]1CC[C@](C)(O)[C@@]1(C)C[C@@H]2F)CCCSCCCC(F)(F)C(F)(F)F [Beispiel 36, 11β-Fluor-17α-methyl-7α-{5-[N-methyl-N-3-(4,4,5,5,5-pentafluorpentylthio)-propylamino]-pentyl}-estra-1,3,5(10)-trien-3,17β-diol] | 0.05 | 62 |  |  |  |
| CN(CCCCC[C@@H]1Cc2cc(O)ccc2[C@@H]2[C@@H]1[C@@H]1CCC(=O)[C@@]1(C)C[C@@H]2F)CCCSCCCC(F)(F)C(F)(F)F [Beispiel 40, 11β-Fluor-7α-{5-[N-methyl-N-3-{4,4,5,5,5-pentafluorpentylthio)-propylamino]-pentyl}-3-hydroxy-estra-1,3,5(10)-trien-17-on] |  |  |  | stark antiestrogen wirksam |  |
| C[C@]12CC[C@@H]3c4ccc(O)cc4C[C@@H](CCCCCCCCC[S+]([O-])CCCC(F)(F)C(F)(F)F)[C@H]3[C@@H]1CC[C@@H]2O (stereo partly drawn) [ZM 182 780, 7α-[9-(4,4,5,5,5-Pentafluorpentansulfinyl)-nonyl]-estra-1,3,5(10)-trien-3,17β-diol, reference compound] |  | 8 |  |  | nur eine geringfügige Wirkung im Vergleich zur intakten Kontrolle |
